In US7875647B2, “Heteroaryl-pyrazole derivatives as cannabinoid CB1 receptor antagonists” (Green Cross Corporation, priority 2006, dated 2011) one finds IC50 data, which are given here for 28 compounds.

The first experiment deals with T1, Cannabinoid-1 receptor (CB1R) (Rattus norvegicus, UniProt P20272).
T1 construct: The tissue obtained from the brain of SD rats was homogenized; from tissue; host or cells: brain of SD rats (membrane pellet of the homogenate)
T1 sequence (P20272 whole entry): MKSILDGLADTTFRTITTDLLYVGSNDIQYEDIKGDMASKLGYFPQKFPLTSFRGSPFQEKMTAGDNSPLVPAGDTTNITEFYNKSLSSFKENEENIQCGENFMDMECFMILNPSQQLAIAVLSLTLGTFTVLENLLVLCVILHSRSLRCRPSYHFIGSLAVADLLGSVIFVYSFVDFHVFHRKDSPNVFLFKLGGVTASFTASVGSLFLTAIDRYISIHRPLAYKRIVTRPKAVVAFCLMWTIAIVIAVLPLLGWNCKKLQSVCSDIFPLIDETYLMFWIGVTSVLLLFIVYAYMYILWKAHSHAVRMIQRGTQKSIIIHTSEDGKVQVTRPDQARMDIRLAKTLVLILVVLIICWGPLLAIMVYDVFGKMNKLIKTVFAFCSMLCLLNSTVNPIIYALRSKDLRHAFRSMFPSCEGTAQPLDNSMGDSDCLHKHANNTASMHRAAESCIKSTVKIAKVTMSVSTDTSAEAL
Briefly: Cannabinoid-1 receptor (CB1R) binding affinity assay ([3H]CP-55940, rat CB-1 receptor binding protocol). As to conditions: IC50(nM), brain tissue of SD rats, [3H]CP-55940, 30° C. 60 min. The procedure: The tissue obtained from the brain of SD rats was homogenized with a Dounce homogenate system in TME (50 mM Tris, 3 mM MgCl2 and 1 mM EDTA, pH 7.4) at 4° C., and the homogenate was centrifuged at 48,000 g for 30 min. at 4° C. The pellet was resuspended in 5 ml of TME and the suspension was divided into aliquots and stored at −70° C. until its use in the following assay.
The tissue concentrations were determined by Bradford protein analysis, and 148 μl of brain tissue of the required concentration was added to the plate. The plate was covered and placed in a 30° C. incubator for 60 min, and then transformed on GF/B filtermat pretreated in polyethylenimine (PEI) using a cell harvester. Each filter was washed five times and dried at 60° C. for 1 hr. Then, the degree of radioactivity retained by the filter was measured using Wallac Microbeta™ (PerkinElmer Life Sciences, Inc., Massachusetts, U.S.A.) and the activity of the compound for inhibiting CB1 receptor was determined therefrom.
In the case of `CCCCCOC(C)(C)c1nnc(-c2nn(-c3ccc(Cl)cc3Cl)c(-c3ccc(Cl)cc3)c2C)s1` [Example 461, 2-(5-(4-chlorophenyl)-1-(2,4-dichlorophenyl)-4-methyl-1H-pyrazol-3-yl)-5-(2-(pentyloxy)propan-2-yl)-1,3,4-thiadiazole], the IC50 stood at 13.7 nM.

The experiment is the same for the next values; noted with them: brain tissue of SD rats, [3H]CP-55940, 30° C. 60 min; read-out: IC50.
Regarding `CCc1c(-c2nnc(C3(CC)CC3)s2)nn(-c2ccc(Cl)cc2Cl)c1-c1ccc(Br)cc1` [Example 490, 2-(5-(4-bromophenyl)-1-(2,4-dichlorophenyl)-4-ethyl-1H-pyrazol-3-yl)-5-(1-ethylcyclopropyl)-1,3,4-thiadiazole], the IC50 was found to be 19.8 nM.
Same read-out and setting: next, `CC(=O)c1c(-c2nnc(C3(c4ccc(Cl)cc4)CC3)o2)nn(-c2ccc(Cl)cc2Cl)c1-c1ccc(Cl)cc1` [Example 215, 1-(5-(4-chlorophenyl)-3-(5-(1-(4-chlorophenyl)cyclopropyl)-1,3,4-oxadiazol-2-yl)-1-(2,4-dichlorophenyl)-1H-pyrazol-4-yl)ethanone]: 10.8 nM.
On the same count and under the same terms, next, `Cc1c(-c2nnc(C(C)(C)C)s2)nn(-c2ccc(Cl)cc2Cl)c1-c1ccccc1` [Example 421, 2-tert-butyl-5-(1-(2,4-dichlorophenyl)-4-methyl-5-phenyl-1H-pyrazol-3-yl)-1,3,4-thiadiazole]: 160 nM; `CCc1c(-c2nnc(C3(C#N)CC3)o2)nn(-c2ccc(Cl)cc2Cl)c1-c1ccc(Cl)cc1` [Example 268, 1-(5-(5-(4-chlorophenyl)-1-(2,4-dichlorophenyl)-4-ethyl-1H-pyrazol-3-yl)-1,3,4-oxadiazol-2-yl)cyclopropanecarbonitrile]: 83.8 nM; `COc1ccc(C2(c3nnc(-c4nn(-c5ccc(Cl)cc5Cl)c(-c5ccc(Cl)cc5)c4Cn4cncn4)s3)CC2)cc1` [Example 509, 2-(4-((1H-1,2,4-triazol-1-yl)methyl)-5-(4-chlorophenyl)-1-(2,4-dichlorophenyl)-1H-pyrazol-3-yl)-5-(1-(4-methoxyphenyl)cyclopropyl)-1,3,4-thiadiazole]: 2.07 nM.
As for `Cc1c(-c2nnc(C3(C(C)(C)O)CC3)o2)nn(-c2ccc(Cl)cc2Cl)c1-c1ccc(Cl)cc1` [Example 287, 2-(1-(5-(5-(4-chlorophenyl)-1-(2,4-dichlorophenyl)-4-methyl-1H-pyrazol-3-yl)-1,3,4-oxadiazol-2-yl)cyclopropyl)propan-2-ol], the IC50 stood at 34.9 nM.
Regarding `CCC(C)(C)c1nnc(-c2nn(-c3ccc(Cl)cc3Cl)c(-c3ccc(Cl)cc3)c2Br)o1` [Example 342, 2-(4-bromo-5-(4-chlorophenyl)-1-(2,4-dichlorophenyl)-1H-pyrazol-3-yl)-5-tert-pentyl-1,3,4-oxadiazole], the IC50 amounted to 27.8 nM.
With `CC(C)(C)c1nnc(-c2nn(-c3ccc(Cl)cc3Cl)c(-c3ccc(Cl)cc3)c2COC(=O)c2ccccc2)o1` [Example 198, (3-(5-tert-butyl-1,3,4-oxadiazol-2-yl)-5-(4-chlorophenyl)-1-(2,4-dichlorophenyl)-1H-pyrazol-4-yl)methyl benzoate], the IC50 stood at 68.8 nM.
In the case of `Cc1c(-c2nnc(C(C)(C)COCc3ccccc3)o2)nn(-c2ccc(Cl)cc2Cl)c1-c1ccc(Cl)cc1` [Example 254, 2-(1-(Benzyloxy)-2-methylpropan-2-yl)-5-(5-(4-chlorophenyl)-1-(2,4-dichlorophenyl)-4-methyl-1H-pyrazol-3-yl)-1,3,4-oxadiazole], the IC50 came out at 492 nM.
Turning to `Cc1c(-c2nnc(C3CCCCCC3)s2)nn(-c2ccc(Cl)cc2Cl)c1-c1ccc(Br)cc1` [Example 378, 2-(5-(4-Bromophenyl)-1-(2,4-dichlorophenyl)-4-methyl-1H-pyrazol-3-yl)-5-cycloheptyl-1,3,4-thiadiazole], the IC50 came to 31 nM.
As for `Cc1c(-c2nnc(C3CCCC3)s2)nn(-c2ccc(Cl)cc2Cl)c1-c1ccc(Cl)cc1` [Example 346, 2-(5-(4-chlorophenyl)-1-(2,4-dichlorophenyl)-4-methyl-1H-pyrazol-3-yl)-5-cyclopentyl-1,3,4-thiadiazole], the IC50 was found to be 8.8 nM.
Turning to `C=C(C)c1c(-c2nnc(C(C)(C)C)s2)nn(-c2ccc(Cl)cc2Cl)c1-c1ccc(Br)cc1` [Example 535, 2-(5-(4-bromophenyl)-1-(2,4-dichlorophenyl)-4-(prop-1-en-2-yl)-1H-pyrazol-3-yl)-5-tert-butyl-1,3,4-thiadiazole], the IC50 amounted to 12 nM.
As for `Cc1c(-c2nnc(C(C)c3ccccc3)s2)nn(-c2ccc(Cl)cc2Cl)c1-c1ccc(Cl)cc1` (stereo not shown) [Example 381, 2-(5-(4-chlorophenyl)-1-(2,4-dichlorophenyl)-4-methyl-1H-pyrazol-3-yl)-5-(1-phenylethyl)-1,3,4-thiadiazole], the IC50 was determined as 11.2 nM.
As to `Cc1c(-c2nnc(C3CCC3)s2)nn(-c2ccc(Cl)cc2Cl)c1-c1ccccc1` [Example 423, 2-cyclobutyl-5-(1-(2,4-dichlorophenyl)-4-methyl-5-phenyl-1H-pyrazol-3-yl)-1,3,4-thiadiazole], the IC50 was 168 nM.
On the same count and under the same terms, the same measure for `Cc1c(-c2nnc(C3(c4ccc(Cl)cc4)CC3)o2)nn(-c2cc(Cl)ccc2Cl)c1-c1ccc(Cl)cc1` [Example 167, 2-(5-(4-chlorophenyl)-1-(2,5-dichlorophenyl)-4-methyl-1H-pyrazol-3-yl)-5-(1-(4-chlorophenyl)cyclopropyl)-1,3,4-oxadiazole]: 41.9 nM; for `Cc1ccc(C2(c3nnc(-c4nn(-c5ccc(Cl)cc5Cl)c(-c5ccc(Cl)cc5)c4Cn4cncn4)s3)CC2)cc1` [Example 508, 2-(4-((1H-1,2,4-triazol-1-yl)methyl)-5-(4-chlorophenyl)-1-(2,4-dichlorophenyl)-1H-pyrazol-3-yl)-5-(1-p-tolylcyclopropyl)-1,3,4-thiadiazole]: 5.74 nM.
Still for that read-out and setting: next, `Clc1ccc(-c2c(Cn3cncn3)c(-c3nnc(C4(c5ccccc5)CC4)s3)nn2-c2ccc(Cl)cc2Cl)cc1` [Example 507, 2-(4-((1H-1,2,4-triazol-1-yl)methyl)-5-(4-chlorophenyl)-1-(2,4-dichlorophenyl)-1H-pyrazol-3-yl)-5-(1-phenylcyclopropyl)-1,3,4-thiadiazole]: 1.79 nM; `Cc1ccc(C2(c3nnc(-c4nn(-c5ccc(Cl)cc5Cl)c(-c5ccc(Cl)cc5)c4C)s3)CC2)cc1` [Example 460, 2-(5-(4-chlorophenyl)-1-(2,4-dichlorophenyl)-4-methyl-1H-pyrazol-3-yl)-5-(1-p-tolylcyclopropyl)-1,3,4-thiadiazole]: 20.1 nM.
Consider `Clc1ccc(-c2c(Cl)c(-c3nnc(C4CCC4)s3)nn2-c2ccc(Cl)cc2Cl)cc1` [Example 536, 2-(4-chloro-5-(4-chlorophenyl)-1-(2,4-dichlorophenyl)-1H-pyrazol-3-yl)-5-cyclobutyl-1,3,4-thiadiazole], for which the IC50 amounted to 199 nM.
As to `CCCCOCc1c(-c2nnc(C(C)(C)C)o2)nn(-c2ccc(Cl)cc2Cl)c1-c1ccc(Cl)cc1` [Example 206, 2-(4-(butoxymethyl)-5-(4-chlorophenyl)-1-(2,4-dichlorophenyl)-1H-pyrazol-3-yl)-5-tert-butyl-1,3,4-oxadiazole], the IC50 amounted to 113 nM.
For `CCCCC(O)c1nnc(-c2nn(-c3ccc(Cl)cc3Cl)c(-c3ccc(Cl)cc3)c2C)o1` (stereo not shown) [Example 241, 1-(5-(5-(4-chlorophenyl)-1-(2,4-dichlorophenyl)-4-methyl-1H-pyrazol-3-yl)-1,3,4-oxadiazol-2-yl)pentan-1-ol], the IC50 was found to be 73.4 nM.
As to `CCc1c(-c2nnc(C3(c4ccc(F)cc4)CC3)o2)nn(-c2ccc(Cl)cc2Cl)c1-c1ccc(Br)cc1` [Example 272, 2-(5-(4-bromophenyl)-1-(2,4-dichlorophenyl)-4-ethyl-1H-pyrazol-3-yl)-5-(1-(4-fluorophenyl)cyclopropyl)-1,3,4-oxadiazole], the IC50 was 5.8 nM.
For the compound `Cc1c(-c2nnc(C(C)(C)c3ccc(Cl)cc3)s2)nn(-c2ccc(Cl)cc2Cl)c1-c1ccc(Cl)cc1` [Example 402, 2-(5-(4-chlorophenyl)-1-(2,4-dichlorophenyl)-4-methyl-1H-pyrazol-3-yl)-5-(2-(4-chlorophenyl)propan-2-yl)-1,3,4-thiadiazole], the IC50 was found to be 5.34 nM.
`CCc1c(-c2nnnn2C2CCCC2)nn(-c2ccc(Cl)cc2Cl)c1-c1ccc(Cl)cc1` [Example 610, 5-(5-(4-chlorophenyl)-1-(2,4-dichlorophenyl)-4-ethyl-1H-pyrazol-3-yl)-1-cyclopentyl-1H-tetrazole]: the IC50 turned out to be 22.6 nM.
Same read-out and setting: the same measure for `CC(C)(C)c1nnc(-c2nn(-c3ccc(Cl)cc3Cl)c(-c3ccc(Br)cc3)c2C=O)s1` [Example 527, 5-(4-bromophenyl)-3-(5-tert-butyl-1,3,4-thiadiazol-2-yl)-1-(2,4-dichlorophenyl)-1H-pyrazole-4-carbaldehyde]: 10.1 nM.
`Cc1c(-c2ncc(C3CCCCC3)o2)nn(-c2ccc(Cl)cc2Cl)c1-c1ccc(Cl)cc1` [Example 638, 2-(5-(4-chlorophenyl)-1-(2,4-dichlorophenyl)-4-methyl-1H-pyrazol-3-yl)-5-cyclohexyloxazole]: the IC50 was 93.9 nM.
`Cc1c(-c2nnc(C3(C(F)(F)F)CCC3)s2)nn(-c2ccc(Cl)cc2Cl)c1-c1ccc(Cl)cc1` [Example 465, 2-(5-(4-chlorophenyl)-1-(2,4-dichlorophenyl)-4-methyl-1H-pyrazol-3-yl)-5-(1-(trifluoromethyl)cyclobutyl)-1,3,4-thiadiazole]: the IC50 was 33.9 nM.
